Results as given in patent publication US10259843B2, “Cyclic tetrapeptide stereoisomers” (University of Kansas, priority 2014, dated 2019).
Several values for one entry are separate records, joined by “and”; a condition that tells them apart may be missing. Equal values may be shown once. Entries after “also recorded” stand apart in the source; their conditions may differ. Where a name gives a salt, the structure may show the parent alone. Read-outs that look alike come from different tables or passages of the source. Non-standard residues stand in square brackets, D forms with d. Residues, ends and D or L forms follow the SMILES beside them.

Columns and labels:
[1] = target: kappa opioid receptor (KOR) (Homo sapiens, UniProt P41145); assay: radioligand binding assay, kappa opioid receptor affinity; conditions: for Selectivity KOR/MOR/DOR: ratio of Ki values
kappa opioid receptor (KOR), sequence (P41145 whole entry): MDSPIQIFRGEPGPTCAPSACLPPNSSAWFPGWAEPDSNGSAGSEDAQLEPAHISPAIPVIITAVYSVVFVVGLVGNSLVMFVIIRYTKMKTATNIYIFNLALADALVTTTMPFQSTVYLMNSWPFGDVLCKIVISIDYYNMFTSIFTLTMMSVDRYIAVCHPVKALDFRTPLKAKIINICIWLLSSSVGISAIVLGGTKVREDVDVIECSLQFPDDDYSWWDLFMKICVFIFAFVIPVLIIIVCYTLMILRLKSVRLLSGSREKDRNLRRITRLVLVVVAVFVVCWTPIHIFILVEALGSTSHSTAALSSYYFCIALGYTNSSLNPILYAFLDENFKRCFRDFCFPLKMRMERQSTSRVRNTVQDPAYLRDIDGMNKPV
Method: (§1) The peptides of Table 1 shown below in Tables 3 and 4 were evaluated in radioligand binding assays for mu, kappa and delta opioid receptor affinities in vitro, and in the mouse 55° C. warm water tail withdrawal assay in vivo for antinociception and opioid antagonist activity.

[2] = target: delta opioid receptor (DOR) (Homo sapiens, UniProt P41143); assay: radioligand binding assay, delta opioid receptor affinity; conditions: for Ki: n in parentheses, read-out: Ki (nM ± SEM) DOR
delta opioid receptor (DOR), sequence (P41143 whole entry): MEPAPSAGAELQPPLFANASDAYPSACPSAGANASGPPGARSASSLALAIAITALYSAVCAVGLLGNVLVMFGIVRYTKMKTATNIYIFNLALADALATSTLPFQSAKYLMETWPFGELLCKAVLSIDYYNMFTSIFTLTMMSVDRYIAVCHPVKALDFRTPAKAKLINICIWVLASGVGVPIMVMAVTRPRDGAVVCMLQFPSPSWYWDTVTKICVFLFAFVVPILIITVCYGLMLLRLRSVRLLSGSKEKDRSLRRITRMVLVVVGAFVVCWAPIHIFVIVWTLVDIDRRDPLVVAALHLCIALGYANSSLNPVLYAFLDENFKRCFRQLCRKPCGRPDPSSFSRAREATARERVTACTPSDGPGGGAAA
Method: as §1

[3] = mouse 55° C. warm water tail withdrawal assay, antinociception; type: in vivo; conditions: for ED50 (95% CI) i.c.v. / ED50 (95% CI) p.o.: antinociception; for Receptors involved: opioid receptors contributing to antinociception
Method: as §1

[4] = system: opioid receptors (KOR, MOR, DOR); assay: mouse 55° C. warm water tail withdrawal assay, opioid antagonist activity; type: in vivo; conditions: for Antagonism (opioid receptor antagonised in vivo): dose not given
Method: as §1

acute tolerance model = conditions: in vivo
[5] = rotorod test for sedation and motor coordination; type: in vivo; design: key: ✓ indicates tested (if no other comment then no significant effect)
mu opioid receptor (MOR) = mu opioid receptor (MOR) (Homo sapiens, UniProt P35372); assay: radioligand binding assay, mu opioid receptor affinity
mu opioid receptor (MOR), sequence (P35372 whole entry): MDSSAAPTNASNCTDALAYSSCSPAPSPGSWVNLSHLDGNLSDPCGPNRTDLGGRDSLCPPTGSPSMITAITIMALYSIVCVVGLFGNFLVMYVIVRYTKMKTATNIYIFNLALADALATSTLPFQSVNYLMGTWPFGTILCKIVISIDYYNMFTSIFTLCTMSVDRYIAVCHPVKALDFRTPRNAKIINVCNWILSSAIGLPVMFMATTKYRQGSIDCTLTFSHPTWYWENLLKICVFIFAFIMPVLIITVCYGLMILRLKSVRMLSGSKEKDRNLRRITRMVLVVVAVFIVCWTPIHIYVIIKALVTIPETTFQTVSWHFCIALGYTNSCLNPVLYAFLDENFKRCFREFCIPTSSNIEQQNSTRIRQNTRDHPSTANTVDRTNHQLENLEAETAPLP
Method: as §1

locomotion (CLAMS) = type: in vivo; design: key: ✓ indicates tested (if no other comment then no significant effect)
[6] = nerve constriction assay for neuropathic pain; type: in vivo, rodent; conditions: 10 mg/kg p.o.; compared to 50 mg/kg i.p. gabapentin and 2801
Method: In the nerve constriction assay, a nerve of a subject rodent is chronically constricted or cuffed and then the animal is assessed for response to pain stimuli such a paw withdrawal. […] Gabapentin is an accepted treatment for neuropathic pain.

respiratory depression = type: in vivo; design: key: ✓ indicates tested (if no other comment then no significant effect)
[7] = other pain models (formalin, acetic acid stretching, nerve constriction; FIGS. 1-3B); conditions: in vivo
Source text: These models are based on the formalin assay, the acetic acid stretching assay, and the nerve constriction assay. The formalin and acetic acid stretching assays are indicative of activity against inflammatory pain (i.e., nociceptive pain) and the nerve constriction assay is indicative of activity against neuropathic pain.

[8] = conditioned place response assay; conditions: oral administration of the peptides
[9] = stress-induced reinstatement of cocaine seeking behavior, conditioned place preference assay; conditions: in vivo
Source text: In interesting comparison to the other cyclic tetrapeptides, compound 3613 (DDDD) is a mu opioid receptor (MOR) agonist and delta opioid receptor (DOR) antagonist. MOR agonists/DOR antagonists are of great interest because of their decreased liability profile (decreased addiction potential and liability profile such as tolerance) compared to MOR agonists like morphine.

[10] = n in parentheses, read-out: Ki (nM ± SEM) KOR
[11] = n in parentheses, read-out: Ki (nM ± SEM) MOR

SMILES	Ki [1, 10]	Ki [2] [nM]	ED50 (95% CI) i.c.v. ([3]; i.c.v.)	ED50 (95% CI) p.o. ([3]; p.o.)	Receptors involved [3]	Antagonism (opioid receptor antagonised in vivo) [4]	Ki (mu opioid receptor (MOR); [11]) [nM]	Rotorod (10 mg/kg, p.o.) [5]	Locomotion (CLAMS, 10 mg/kg, p.o.) (locomotion (CLAMS))	Respiratory depression 10 mg/kg p.o. (respiratory depression)	also measured
O=C1N[C@@H](Cc2ccccc2)C(=O)N2CCC[C@@H]2C(=O)N[C@@H](Cc2ccccc2)C(=O)N[C@H]1Cc1c[nH]c2ccccc12 [JVA 2801, cyclo[Phe-D-Pro-Phe-Trp], reference compound] (cyclo(FWF[dP]))	35.4 nM and 16.9 nM	1720 ± 350	1.74 nmol	3.49 mg/kg	KOR, MOR	KOR	–	–	–	–	Selectivity KOR/MOR/DOR [1]: 1/18/49 and 1/12/102; Antagonism (opioid receptor antagonised in vivo) ([4]; listed as CJ-15,208): mixed opioid agonist/kappa opioid receptor (KOR) antagonist activity; also recorded: weak antagonist activities at kappa opioid receptors (KOR); Acute Tolerance ED50 shift (acute tolerance model): 1.73 fold; Rotorod ([5]; 10 and 60 mg/kg): ✓ (10 and 60
O=C1N[C@H](Cc2c[nH]c3ccccc23)C(=O)N[C@@H](Cc2ccccc2)C(=O)N2CCC[C@@H]2C(=O)N[C@H]1Cc1ccccc1 [JVA 2802, cyclo[Phe-D-Pro-Phe-D-Trp], reference compound] (cyclo(F[dP]F[dW]))	–	4190 ± 860	–	–	KOR	KOR	259 ± 29	–	–	–	affinity for KOR [1]: retains KOR affinity comparable to the parent CJ-15,208; Selectivity KOR/MOR/DOR [1]: 1/37/599; antinociception i.c.v. at 30 nmol ([3]; i.c.v., 30 nmol): ~40% @; antinociception p.o. at 60 mg/kg ([3]; p.o., 60 mg/kg): ~25% @; Locomotion (CLAMS) (locomotion (CLAMS); 60 mg/kg): ✓
O=C1N[C@H](Cc2ccccc2)C(=O)N2CCC[C@@H]2C(=O)N[C@@H](Cc2ccccc2)C(=O)N[C@H]1Cc1c[nH]c2ccccc12 [JVA 3605, cyclo[D-Phe-D- Pro-Phe-Trp]] (cyclo([dF][dP]FW))	5120 ± 690 nM	> 10000	0.75 nmol	7.62 mg/kg	KOR, MOR, and DOR	exhibits KOR antagonist activity; also recorded: exhibit DOR antagonist activity	> 10000	effects similar to the KOR selective agonist U50,488, suggesting sedation; also recorded: ✓ (sig	✓	evidence of respiratory depression; also recorded: Sig. resp	Antagonism (dose, nmol) ([4]; 30 nmol): KOR (30),; Antagonism (dose, nmol) ([4]; 100 nmol): DOR (100); relief of neuropathic pain [6]: significant relief of neuropathic pain; analgesic activity in other pain models [7]: significant analgesic properties; also recorded: show activity against pain; conditioned place preference (drug seeking behavior) or conditioned place aversion [8]: no evidence of inducing drug seeking behavior; also recorded: do not show evidence of conditioned place preference (drug seeking behavior) or conditioned place aversion
O=C1N[C@@H](Cc2ccccc2)C(=O)N2CCC[C@@H]2C(=O)N[C@H](Cc2ccccc2)C(=O)N[C@H]1Cc1c[nH]c2ccccc12 [JVA 3606, cyclo[Phe-D-Pro-D-Phe-Trp]] (cyclo(F[dP][dF]W))	362 ± 51 nM	> 10000	Partial agonist	> 30 mg/kg	KOR, MOR	–	3920 ± 200	✓	Sig. hypo-	✓	Ki ([1]; read-out: Ki KOR): < 1000 nM; Ki (mu opioid receptor (MOR); read-out: Ki MOR): > 1000 nM; affinity for DOR [2]: negligible affinity; maximum antinociception i.c.v. ([3]; i.c.v., max): (~60% max); antinociception response p.o. at 30 mg/kg ([3]; p.o.): ~45%; Antagonism (dose, nmol) ([4]; 100 nmol): None (100); Acute Tolerance ED50 shift (acute tolerance model): Substantial
O=C1N[C@H](Cc2ccccc2)C(=O)N[C@H](Cc2c[nH]c3ccccc23)C(=O)N[C@@H](Cc2ccccc2)C(=O)N2CCC[C@H]12 [JVA 3608, cyclo[Phe-D-Pro-D-Phe-D-Trp]] (cyclo(F[dP][dF][dW]))	353 ± 19 nM	> 10000	0.56 nmol	4.72 mg/kg	KOR, MOR, and DOR	exhibit DOR antagonist activity	5800 ± 1450	✓	Sig. hypo-	evidence of respiratory depression; also recorded: Resp	Ki ([1]; read-out: Ki KOR): < 1000 nM; Ki (mu opioid receptor (MOR); read-out: Ki MOR): > 1000 nM; affinity for DOR [2]: negligible affinity; Antagonism (dose, nmol) ([4]; 100 nmol): DOR (100); relief of neuropathic pain [6]: significant relief of neuropathic pain; Acute Tolerance ED50 shift (acute tolerance model): 9.87 fold; analgesic activity in other pain models [7]: significant analgesic properties; analgesic activity in other pain models ([7]; listed as 3708): show activity against pain
O=C1N[C@H](Cc2c[nH]c3ccccc23)C(=O)N[C@H](Cc2ccccc2)C(=O)N2CCC[C@@H]2C(=O)N[C@H]1Cc1ccccc1 [JVA 3609, cyclo[D-Phe-D- Pro-Phe-D-Trp]] (cyclo(F[dW][dF][dP]))	> 10000 nM	> 10000	2.39 nmol	≥10 mg/kg	mu opioid receptors (MOR) are not involved; also recorded: DOR, KOR	–	> 10000	✓ (sig	Sig. hypo-	evidence of respiratory depression; also recorded: Resp	antinociception response p.o. at 30 mg/kg ([3]; p.o.): (~60% at; Antagonism (dose, nmol) ([4]; 30 nmol): None (30)
O=C1N[C@@H](Cc2ccccc2)C(=O)N2CCC[C@H]2C(=O)N[C@@H](Cc2ccccc2)C(=O)N[C@H]1Cc1c[nH]c2ccccc12 [JVA 3612, cyclo[Phe-Pro- Phe-Trp]] (cyclo(FPFW))	–	–	3.52 (2.01-6.42) nmol	4.28 (3.56-5.27) mg/kg	KOR, MOR and DOR	–	–	–	–	–	–
O=C1N[C@H](Cc2ccccc2)C(=O)N[C@H](Cc2c[nH]c3ccccc23)C(=O)N[C@H](Cc2ccccc2)C(=O)N2CCC[C@H]12 [JVA 3613, cyclo[D-Phe-D-Pro-D-Phe-D-Trp]] (cyclo([dF][dP][dF][dW]))	2010 ± 270 nM	> 10000	0.51 nmol	2.47 mg/kg	kappa opioid receptors (KOR) are not involved; also recorded: DOR, MOR	exhibit DOR antagonist activity	> 10000	✓	✓	✓	Antagonism (dose, nmol) ([4]; 30 nmol): DOR (30); prevention of stress-induced reinstatement of cocaine seeking behavior [9]: effective in preventing stress-induced reinstatement of cocaine seeking behavior
O=C1N[C@H](Cc2ccccc2)C(=O)N2CCC[C@H]2C(=O)N[C@H](Cc2ccccc2)C(=O)N[C@H]1Cc1c[nH]c2ccccc12 [JVA 3638, cyclo[D-Phe- Pro-D-Phe-Trp]] (cyclo(P[dF]W[dF]))	–	–	8.93 (1.96-19.5) nmol	–	–	–	–	–	–	–	–
O=C1N[C@H](Cc2c[nH]c3ccccc23)C(=O)N[C@@H](Cc2ccccc2)C(=O)N2CCC[C@H]2C(=O)N[C@H]1Cc1ccccc1 [JVA 3639, cyclo[Phe-Pro- Phe-D-Trp]] (cyclo(FPF[dW]))	–	–	49.7 (34.8-69.8) nmol	–	–	–	–	–	–	–	–
CN1CC[C@]23c4c5ccc(O)c4O[C@H]2[C@@H](O)C=C[C@H]3[C@H]1C5 [Morphine sulfate, morphine, reference compound]	–	–	–	–	–	–	–	–	–	–	conditioned place preference (drug seeking behavior) or conditioned place aversion [8]: significant conditioned place preference
